From US7919475B2, “Compositions and methods for improving heart function” (The Regents of The University of California, priority 2004, dated 2011)

Tests used:
nuclear O-GlcNAcylation = assay: Nuclear O-GlcNAcylation by Western immunoblot (antibody 110.6) in neonatal cardiomyocytes; type: cell-based, rat; conditions: 72 hours; 25 mM glucose; 5.5 mM glucose with 8 mM glucosamine or 50 μM PUGNAc; 25 mM glucose with adenovirus MOI 25
Experimental: Samples of each extract (25-50 μg) were fractionated by SDS-PAGE on precast 4-20% Tris-glycine gels (BioRad) and transferred to nylon membranes. Membranes were blocked overnight, exposed to the O-GlcNAc-specific antibody 110.6 (17) (1:10,000) overnight at 4° C., then exposed for 1 hour to 1:5,000 goat anti-mouse IgM-HRP. Alternatively, membranes were exposed to anti-MEF-2 (1:200) for one hour at RT followed by a one hour exposure to 1:10,000 goat anti-rabbit IgG-HRP. Visualization and quantification was as described above.
Cells were cultured for 72 hours in 5.5 mM glucose (NG) or 25 mM glucose (HG) and supplemented with one of the following: 8 mM glucosamine (NG/GlcN), 50 μM PUGNAc, or adenovirus encoding either OGT or GCA. Adenoviruses were applied at an MOI=25. Nuclear extracts (50 μg) were prepared according to the methods outlines in “Experimental Procedures”, resolved on 4-20% gradient SDS-tricine gels, transferred to nylon membranes and immunoblotted with a monoclonal anti-O-GlcNAc antibody 110.6.

[1] = tested on: neonatal rat cardiomyocytes; assay: Indo-1 [Ca2+]i transients in cultured neonatal cardiomyocytes; type: cell-based; conditions: for time to achieve a 50% decrease in the calcium transient (T1/2): 5.5 mM glucose supplemented with 8 mM glucosamine or 50 μM PUGNAc, 72 hours; for increase in diastolic calcium decay relative to controls: 5.5 mM glucose with 8 mM glucosamine or 50 μM PUGNAc
Experimental: (§1) Cardiomyocyte Isolation and Culture. Primary cultures of neonatal rat cardiomyocytes were prepared as described previously, see, e.g., Hartong (1996) J. Mol. Cell. Cardiol. 28:2467-2477. Cells were plated onto gelatin-coated culture dishes or laminin-coated glass chamber slides. Plating medium consisted of 4.25:1 DMEM:M199, 10% horse serum, 5% fetal bovine serum, 1% penicillin/streptomycin/fungizone (PSF), and 5.5 mM D-glucose. Cells were allowed to adhere to the plates for 24 hours before changing to basic experimental culture medium (4.5:1 DMEM:M199, 2% fetal bovine serum, 1% PSF, and 100 μM insulin) and supplemented with glucose at either physiological (5.5 mM; normal glucose) or elevated (25 mM; high glucose) concentrations. For some experiments, media was supplemented with 8 mM glucosamine, 40 μM aminoguanidine, 0.5 μg/ml tunicamycin, 50 μM PUGNAc or an osmotic control (20 mM mannitol). In cases where cells were plated at exceptionally high density (5×10^6 per 100 mm plate), the culture medium was changed daily until the cells were harvested.
Construction of adenoviral vectors. The rat cDNA corresponding to the UDP-N-acetylglucosamine:peptide N-acetylglucosaminyl transferase gene (O-GlcNAc transferase; OGT), which encodes the enzyme responsible for the O-linkage of single N-acetylglucosamine molecules to serine/threonine residues (19), and the human cDNA encoding the O-GlcNAcase gene (GCA), the enzyme responsible for removing O-linked N-acetylglucosamine residues (see, e.g., Haltiwanger (1992) J. Biol. Chem. 267:9005-9013). Each cDNA was inserted into the E1 region of an adenoviral vector construct using previously described methods (see, e.g., Gao (2001) J. Biol. Chem. 276:9838-9845). Replication-deficient adenovirus particles containing the target gene or empty vector (SR−) were generated by in vivo recombination in 293 cells and single plaques were isolated and propagated to achieve high titer. Adenoviral particles were CsCl-purified and quantified by plaque titer assay. Myocytes were infected with a multiplicity of infection (MOI) of 25 for all viruses.
Measurement of [Ca^2+]I transients. Indo-1 facilitated measurement of Ca^2+ transients has been described previously, see, e.g., He (1997) J. Clin. Invest 100:380-389). […] Cells were rinsed and incubated for 20 min at RT in appropriate serum-free culture medium containing 1.8 mM CaCl2 prior to making fluorescence measurements to allow for deesterification of the Indo-1/AM. […] Transients were measured from at least 18 cells per slide per treatment. […]
Calcium transients. To determine whether elevated extracellular glucose and increased O-GlcNAcylation would exert an effect on intracellular calcium flux, Indo-1 calcium transients were determined in neonatal rat cardiomyocytes. […]

CB6F1 mice = assay: Blood glucose and cardiac UDP-sugar nucleotides in streptozocin-injected mice; type: in vivo, mouse; conditions: streptozocin 150 mg/kg intraperitoneal, three weeks
Experimental: Animals and Determination of Cardiac Sugar Nucleotides. Male CB6F1 mice weighing 20-25 g (Charles River, Wilmington, Mass.) were made diabetic using methods described previously, see, e.g., Trost (2002) supra. Briefly, diabetes was induced with a single intraperitoneal injection of streptozocin (150 mg/kg in citrate saline, pH 4.5) to animals fasted overnight (16 hrs). Diabetic animals were sacrificed three weeks following injection. To determine the degree of diabetes, blood was drawn via direct cardiac puncture in CO2-euthanized animals and plasma glucose concentration was determined using the Sigma Glucose Kit (510-A).
Sugar nucleotides were extracted from fresh ventricles and quantified by HPLC as described by Weckbecker (1983) Anal. Biochem. 132:405-412. Hearts were homogenized in 3 vols of ice-cold 0.3 M HClO4 and debris pelleted at 10,000×g for 15 min at 4° C. Two vols of 1:4 trioctylamine: 1,1,2-trichlorotrifluoroethane (Freon) were added to the supernatant, followed by vortexing for 30 sec and centrifuging at 1000×g for 5 min at 4° C. The aqueous phase was carefully transferred to a fresh tube and frozen at −80° C. until assayed. Samples were diluted in 0.5 ml H2O and desalted on a Mono-Q column (flow rate 1 ml/min). The combined UDP-GlcNAc/GalNAc fraction was collected as a peak at 23 minutes and the sample was lyophilized overnight. Dried samples were subsequently dissolved in borate solution (0.22 M boric acid, 0.09 M disodium tetraborate, and 1.2 M glycerol, pH 6.85), and separated into distinct UDP-GlcNAc and UDP-GalNAc peaks on a Partisil SAX-10 column. […]
Effects of STZ-induced diabetes on UDP-nucleotide levels. […] Blood was drawn via direct cardiac puncture and plasma [glucose] was subsequently determined using a Sigma Glucose kit. Sugar nucleotides were extracted immediately from hearts and quantitated using HPLC as described in “Experimental Procedures” above. […] Fractions were quantified by comparing total peak area with results from known concentrations of each sugar nucleotide.

SERCA2a = SERCA2a protein level by Western immunoblot in neonatal cardiomyocytes; type: cell-based, rat; conditions: for influence on SERCA2a protein levels: 40 μM aminoguanidine or 0.5 μg/ml tunicamycin, regardless of glucose concentration
Experimental: as §1
Western Immunoblotting. To determine SERCA2a protein levels, myocytes (1×10^6) were washed with phosphate buffered saline (PBS), then extracted with 0.2 ml lysis buffer (20 mM Tris, pH 7.4, 20 mM NaCl, 0.1 mM EDTA, 1% Triton X-100, 0.5% Na-deoxycholate, 1 mM dithiothreitol). Lysates were incubated on ice for 30 min, and cellular debris was pelleted at 10,000×g for 20 min at 4° C. Protein concentration in the supernatant was determined by BioRad protein reagent. 30 μg of protein diluted in extraction buffer and 4× Laemmli sample buffer were loaded without boiling onto pre-cast 4-20% Tris-glycine gels. Separated proteins were transferred to nylon membranes using a Bio-Rad Mini Trans-Blot apparatus and blocked overnight at 4° C. Blots were incubated with a rabbit polyclonal SERCA2a antibody (see, e.g., Hartong (1996) supra) (1:5000) for 1 hour at RT, followed by a 1 hour incubation with a 1:5000 dilution of goat anti-rabbit IgG-HRP conjugated secondary antibody (Amersham). Bands were visualized by reacting with chemiluminescent substrate (NEN) and exposed to film. Protein bands were quantified from scanned images using Scion imaging software (Scion, Frederick, Md.).
SERCA2a in RNA, protein expression and promoter activity. […] FIG. 2 illustrates Northern and western blots of neonatal cardiomyocytes. (FIG. 2A) Results of a northern blot for SERCA2a mRNA in neonatal cardiomyocytes cultured for 72 hours with 5.5 mM (NG) or 25 mM (HG) glucose. Total RNA (15 μg) isolated from cultured myocytes was resolved using a denaturing agarose gel, transferred to a nylon membrane and probed with a full length ^32P-labeled probe corresponding to rat SERCA2a as described in “Experimental Procedures”. (FIG. 2B) Western immunoblot analysis of SERCA2a protein levels from neonatal cardiomyocytes exposed to 5.5 mM or 25 mM glucose in the presence and absence of 40 μM aminoguanidine (AG), 0.5 μg/ml tunicamycin (Tun), or 8 mM glucosamine (GlcN, 5.5 mM glucose group only). Crude lysates (30 μg) were resolved using 4-20% gradient SDS-PAGE gels, transferred to nylon membranes, and immunoblotted with a SERCA2a polyclonal antibody as described in “Experimental Procedures”. […] (C) SERCA2a protein levels based on Western immunoblots from adenovirus-infected neonatal cardiomyocytes.

MEF-2a = MEF-2a protein level by immunoblot of nuclear extracts of neonatal cardiomyocytes; type: cell-based, rat; conditions: 25 mM glucose; 5.5 mM glucose with 8 mM glucosamine; 25 mM glucose with adeno-OGT MOI 25
Experimental: To examine cellular O-GlcNAcylation and MEF-2a levels, nuclear extracts were prepared from neonatal cardiomyocytes (2×10^6) using modifications of the procedures described by Dignam (1983) Nucleic Acids Res. 11:1475-1489. Samples of each extract (25-50 μg) were fractionated by SDS-PAGE on precast 4-20% Tris-glycine gels (BioRad) and transferred to nylon membranes. Membranes were blocked overnight, exposed to the O-GlcNAc-specific antibody 110.6 (17) (1:10,000) overnight at 4° C., then exposed for 1 hour to 1:5,000 goat anti-mouse IgM-HRP. Alternatively, membranes were exposed to anti-MEF-2 (1:200) for one hour at RT followed by a one hour exposure to 1:10,000 goat anti-rabbit IgG-HRP. Visualization and quantification was as described above.
Nuclear extracts (50 μg) were prepared as described in “Experimental Procedures” above, resolved on 10% SDS-PAGE gels, transferred to nylon membranes and immunoblotted with anti-MEF2 antibody (Santa Cruz Biotech).

rat SERCA2a promoter = assay: SERCA2a promoter luciferase assay in neonatal cardiomyocytes; type: cell-based; conditions: 5.5 mM glucose/8 mM glucosamine
Experimental: Transfections and SERCA2a Promoter Luciferase Assays. DNA transfection of neonatal cardiomyocytes was performed using the calcium phosphate-DNA co-precipitation method, see, e.g., Chen (1987) Mol. Cell. Biol 7:2745-2752. Cells (0.5×10^6) were transfected overnight in appropriate culture medium (either NG- or HG-containing medium) with 50 ng of either a 0.6 kb fragment of the rat SERCA2a promoter (corresponding to the 600 bases immediately upstream of the transcriptional start codon) (see, e.g., Rohrer (1991) J. Biol. Chem. 266:8638-8646) or a control plasmid (pGL3; Promega) and 3 μg of fill plasmid (pBS; Stratagene), then washed with PBS and changed into fresh culture medium. […] Transfected cells were incubated for 48 hours, then washed with PBS and incubated for 10 min with gentle agitation at RT in 200 μl of harvest buffer (50 mM MES/Tris pH 7.8, 0.1% Triton X-100, and 1.3 mM dithiothreitol). Luciferase activity was measured using 100 μl of extract in a luminometer.
The reduction in SERCA2a mRNA and protein expression observed following treatment of myocytes with high glucose prompted us to examine whether these effects were being exerted, at least in part, by interactions with the SERCA2a gene promoter. […] Crude cell lysates were incubated with luciferase substrate and relative light units were measured on a luminometer. […]

CC(=O)N[C@H]1/C(=N/OC(=O)Nc2ccccc2)O[C@H](CO)[C@@H](O)[C@@H]1O [PUGNAc, O-(2-acetamido-2-deoxy-D-glucopyranosylidene)amino-N-phenyl carbamate]
overall levels of nuclear O-GlcNAcylation (nuclear O-GlcNAcylation): substantially increased | time to achieve a 50% decrease in the calcium transient (T1/2) [1]: 1.31 ± 0.085 s | increase in diastolic calcium decay relative to controls [1]: 43%

CN(N=O)C(=O)N[C@@H](C=O)[C@@H](O)[C@H](O)[C@H](O)CO [STZ, streptozocin]
UDP-GalNAc in heart (CB6F1 mice): 0.51 ± 0.01 nmol | UDP-GlcNAc in heart (CB6F1 mice): 1.36 ± 0.03 nmol | blood glucose (CB6F1 mice): 969 ± 40 mg/dL

N=C(N)NN [aminoguanidine]
influence on SERCA2a protein levels (SERCA2a): Neither aminoguanidine nor tunicamycin appeared to influence SERCA2a protein levels | apparent increase in SERCA2a vs controls (SERCA2a; 25 mM glucose and 40 μM aminoguanidine, repeated trials): not statistically significant

N[C@H]1C(O)O[C@H](CO)[C@@H](O)[C@@H]1O (some centres unmarked) [glucosamine]
overall levels of nuclear O-GlcNAcylation (nuclear O-GlcNAcylation): substantially increased | decrease in MEF-2a expression levels compared with normal glucose controls (MEF-2a): 52% | reduction in SERCA2a promoter activity compared with normal glucose controls (rat SERCA2a promoter): 33% | change in SERCA2a protein compared with controls (SERCA2a; 5.5 mM glucose and 8 mM glucosamine): −25±3% | SERCA2a protein levels compared with myocytes exposed only to 5.5 mM glucose (SERCA2a; 25 mM glucose and glucosamine): unchanged | time to achieve a 50% decrease in the calcium transient (T1/2) [1]: 1.32 ± 0.061 s | increase in diastolic calcium decay relative to controls [1]: 43%

OC[C@@H](O)[C@@H](O)[C@H](O)[C@H](O)CO [mannitol]
osmotic effect on SERCA2a protein levels (SERCA2a; 5.5 mM glucose and 20 mM mannitol): nor did we observe any osmotic effect

tunicamycin
influence on SERCA2a protein levels (SERCA2a): Neither aminoguanidine nor tunicamycin appeared to influence SERCA2a protein levels
